{"source": "paper PMC5286421", "about": "“Interactions of retinoids with the ABC transporters P-glycoprotein and Breast Cancer Resistance Protein” (Scientific Reports, 2017)", "key": {"[1]": {"settings": "ref PubChem Compound Database (CID); cited from earlier work"}, "[2]": {"system": "NIH 3T3 / NIH 3T3 MDR1 and MDCK / MDCK ABCG2 cells", "test": "DPH steady-state fluorescence anisotropy (membrane fluidity)", "settings": "retinoids 100 μM; for Effect on DPH fluorescence anisotropy: cyclosporin 10 μM, Ko143 2 μM, 10 min 37 °C, all tested cell lines"}, "[3]": {"system": "NIH 3T3 / NIH 3T3 MDR1 and MDCK / MDCK ABCG2 cells", "test": "TMA-DPH steady-state fluorescence anisotropy (membrane fluidity)"}, "[4]": {"system": "Pgp- and ABCG2-negative NIH 3T3 and MDCK cells", "test": "Calcein and mitoxantrone accumulation in transporter negative cells", "type": "cell-based, mouse / canine", "settings": "NIH 3T3 (calcein) and MDCK (mitoxantrone), Supplementary Fig. S1, 50 µM", "method": "Supplementary Fig. S1: Effect of retinoid derivatives on the calcein (a) and\nmitoxantrone (c) accumulation and viability (b, d) of Pgp- and ABCG2-negative NIH\n3T3 and MDCK cells. Cells were pre-treated with retinoids added at 50 µM concentration\nCell viability was determined on the basis of propidium iodide exclusion.\n(§1) (1 picture or pasted object on this page, not shown here)"}, "[5]": {"biological_target": "T1, ABCG2 (Homo sapiens, UniProt Q9UNQ0)", "T1 sequence (Q9UNQ0 1-655)": "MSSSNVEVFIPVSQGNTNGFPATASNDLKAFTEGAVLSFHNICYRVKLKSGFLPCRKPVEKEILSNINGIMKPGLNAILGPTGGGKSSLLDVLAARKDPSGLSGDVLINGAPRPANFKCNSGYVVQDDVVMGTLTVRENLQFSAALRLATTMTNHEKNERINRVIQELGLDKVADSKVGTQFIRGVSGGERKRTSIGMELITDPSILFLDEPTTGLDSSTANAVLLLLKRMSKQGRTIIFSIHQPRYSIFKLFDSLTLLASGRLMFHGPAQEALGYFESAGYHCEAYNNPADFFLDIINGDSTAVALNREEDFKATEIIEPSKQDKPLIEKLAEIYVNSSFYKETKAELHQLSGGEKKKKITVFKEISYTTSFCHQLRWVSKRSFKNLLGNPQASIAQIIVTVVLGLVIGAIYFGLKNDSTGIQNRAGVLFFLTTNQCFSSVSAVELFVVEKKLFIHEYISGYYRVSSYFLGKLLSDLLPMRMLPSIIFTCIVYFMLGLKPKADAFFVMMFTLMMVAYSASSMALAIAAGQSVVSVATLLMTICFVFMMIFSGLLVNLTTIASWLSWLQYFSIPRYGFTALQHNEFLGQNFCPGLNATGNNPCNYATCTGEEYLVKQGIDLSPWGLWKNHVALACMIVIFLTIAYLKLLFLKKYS", "test": "Vanadate-sensitive ATPase activity of ABCG2 in Sf9 membrane preparations", "type": "biochemical", "settings": "cholesterol-loaded Sf9 membranes, mean ± SEM, n=3", "method": "For ATPase activity measurements we used membrane samples derived from Sf9 (Spodoptera frugiperda) insect ovarian cells expressing human Pgp or ABCG2. cDNAs of the transporters were cloned into recombinant baculovirus transfer vectors, the Sf9 insect ovarian cells were cultured, and infected with the baculoviruses as described in ref. [52]. Sf9 cells overexpressing human Pgp and ABCG2 were harvested and cell membranes were isolated. The protein concentration of the membrane samples were determined by the Lowry method. The ABCG2 expressing Sf9 membrane samples were loaded with cholesterol by cholesterol-methyl-beta-cyclodextrine complex in order to obtain high specific ATPase activity of the transporter. Membrane samples were stored at −80 °C. The transporter expression of the membrane samples (5 μg membrane protein/slot) was routinely checked by immunoblot using the G-1 mAb (for Pgp) or BXP-21 mAb (for ABCG2) and a goat anti-mouse HRP-conjugated IgG secondary antibody. Both primary and secondary antibodies were from Santa Cruz Biotechnology Inc. (CA, USA) and applied at 1:5,000 dilution.\nThe vanadate-sensitive ATPase activity of Pgp and ABCG2 was determined by a colorimetric assay described in refs [32],[55]. Specific ATPase activity of the transporters was calculated from the amount of released inorganic phosphate. […]. The absorbance of the samples was measured at 700 nm using a BioTek Synergy HT plate reader (BioTek Instruments, Winooski, USA).\nThe half-inhibitory doses (IC50) of retinoids were determined by fitting the dose-response relationships with a four parameter sigmoidal curve, where Amax and Amin are the ATPase activities measured at zero and at infinitely high inhibitor concentrations, respectively, n is the Hill coefficient and x is the concentration of the inhibitor:\nUpon studying the kinetics of inhibition of the substrate-stimulated ATPase activity by retinoids data points were fitted with a modified form of the Michaelis-Menten equation[56] which includes the Hill coefficient, n: […]\nv0 is the basal ATPase activity measured in the absence of the stimulatory substrate, while vmax is the maximal extent of ATPase stimulation and KM is the Michaelis constant (i.e. the substrate concentration at which the reaction rate is half of vmax)."}, "[6]": {"system": "Pgp-positive and Pgp-negative NIH 3T3 cells", "test": "AlamarBlue in vitro cytotoxicity assay", "type": "cell-based, mouse", "settings": "72 h, NIH 3T3 and NIH 3T3 MDR1, Supplementary Fig. S3", "method": "Supplementary Fig. S3: Cytotoxic effect of retinyl-acetate on Pgp-positive and Pgp-negative NIH 3T3 cells. The AlamarBlue (Serotec, UK) based in vitro cytotoxicity assay was performed as previously described 1. Cells were seeded in 96-well plates at a cell density of 5 × 10^3 cells/well. 24 hours later retinyl-acetate was added at different concentrations and the plates were further incubated for 72 h at 37 °C. The cell viability was determined measuring the 530/590 nm fluorescence intensity of the dye in an automated microplate reader (BioTec Synergy HT, US). The AlamarBlue fluorescence intensity of the samples was normalized to the fluorescence of the retinyl-acetate untreated samples, and plotted as a function of retinyl-acetate concentration. The data points are means of eight parallel samples (±SD).\nas §1"}, "[7]": {"biological_target": "T2, Pgp (Homo sapiens, UniProt P08183)", "T2 sequence (P08183 whole entry)": "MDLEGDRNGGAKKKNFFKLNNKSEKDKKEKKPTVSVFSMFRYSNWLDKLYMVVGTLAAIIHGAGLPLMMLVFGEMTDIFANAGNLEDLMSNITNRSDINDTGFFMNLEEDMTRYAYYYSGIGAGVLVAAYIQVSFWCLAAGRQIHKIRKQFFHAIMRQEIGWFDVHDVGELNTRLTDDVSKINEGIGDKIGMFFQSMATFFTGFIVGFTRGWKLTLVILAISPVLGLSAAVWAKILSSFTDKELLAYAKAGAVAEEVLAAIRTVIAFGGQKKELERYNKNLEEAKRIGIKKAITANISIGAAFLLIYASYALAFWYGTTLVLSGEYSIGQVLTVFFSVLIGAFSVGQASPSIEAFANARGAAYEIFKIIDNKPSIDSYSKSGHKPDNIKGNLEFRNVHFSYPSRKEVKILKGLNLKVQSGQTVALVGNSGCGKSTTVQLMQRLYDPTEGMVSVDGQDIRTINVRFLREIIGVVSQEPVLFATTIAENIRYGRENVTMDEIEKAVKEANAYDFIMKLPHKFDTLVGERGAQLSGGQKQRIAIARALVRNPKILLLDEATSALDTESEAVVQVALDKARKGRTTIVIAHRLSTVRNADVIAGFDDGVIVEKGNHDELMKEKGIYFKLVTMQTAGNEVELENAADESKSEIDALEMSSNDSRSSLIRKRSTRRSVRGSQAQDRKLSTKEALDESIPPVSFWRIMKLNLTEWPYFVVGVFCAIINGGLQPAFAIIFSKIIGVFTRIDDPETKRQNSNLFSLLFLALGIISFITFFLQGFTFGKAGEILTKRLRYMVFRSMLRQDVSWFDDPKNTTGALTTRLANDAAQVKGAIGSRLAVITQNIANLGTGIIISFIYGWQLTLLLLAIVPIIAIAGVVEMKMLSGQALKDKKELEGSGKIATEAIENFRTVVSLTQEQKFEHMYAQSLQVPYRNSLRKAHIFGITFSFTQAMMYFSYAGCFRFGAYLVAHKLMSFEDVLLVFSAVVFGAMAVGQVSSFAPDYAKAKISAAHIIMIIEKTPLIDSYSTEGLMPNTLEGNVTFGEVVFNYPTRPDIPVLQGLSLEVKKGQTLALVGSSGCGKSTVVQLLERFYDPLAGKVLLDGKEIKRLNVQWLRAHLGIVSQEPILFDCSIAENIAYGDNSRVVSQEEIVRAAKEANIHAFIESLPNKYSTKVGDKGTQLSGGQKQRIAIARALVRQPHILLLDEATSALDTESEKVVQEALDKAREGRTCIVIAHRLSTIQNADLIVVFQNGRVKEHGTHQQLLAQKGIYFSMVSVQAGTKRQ", "settings": "Sf9 membranes", "procedure": "(§2) For ATPase activity measurements we used membrane samples derived from Sf9 (Spodoptera frugiperda) insect ovarian cells expressing human Pgp or ABCG2. cDNAs of the transporters were cloned into recombinant baculovirus transfer vectors, the Sf9 insect ovarian cells were cultured, and infected with the baculoviruses as described in ref. [52]. Sf9 cells overexpressing human Pgp and ABCG2 were harvested and cell membranes were isolated. The protein concentration of the membrane samples were determined by the Lowry method[53]. The ABCG2 expressing Sf9 membrane samples were loaded with cholesterol by cholesterol-methyl-beta-cyclodextrine complex in order to obtain high specific ATPase activity of the transporter[54]. Membrane samples were stored at −80 °C. The transporter expression of the membrane samples (5 μg membrane protein/slot) was routinely checked by immunoblot using the G-1 mAb (for Pgp) or BXP-21 mAb (for ABCG2) and a goat anti-mouse HRP-conjugated IgG secondary antibody. Both primary and secondary antibodies were from Santa Cruz Biotechnology Inc. (CA, USA) and applied at 1:5,000 dilution.\n(§3) The vanadate-sensitive ATPase activity of Pgp and ABCG2 was determined by a colorimetric assay described in refs [32],[55]. Specific ATPase activity of the transporters was calculated from the amount of released inorganic phosphate. […] The absorbance of the samples was measured at 700 nm using a BioTek Synergy HT plate reader (BioTek Instruments, Winooski, USA)."}, "[8]": {"biological_target": "P-gp (human Pgp), basal vanadate-sensitive ATPase activity (Homo sapiens, UniProt P08183)", "sequence (P08183 whole entry)": "as above", "test": "in vitro", "settings": "membranes of Sf9 insect cells expressing human Pgp, IC50 values, 10 min pre-incubation 37 °C, 3 mM ATP/Mg2+ 25 min, mean ± SEM, n=3", "procedure": "as §2, §3"}, "[9]": {"biological_target": "T2, Pgp", "test": "biochemical", "settings": "IC50 values, Pgp stimulated (verapamil-stimulated) ATPase activity, 40 μM verapamil; Sf9 membranes; mean ± SEM, n=3", "procedure": "as §2, §3"}, "[10]": {"biological_target": "T2, Pgp", "test": "Calcein accumulation test (Pgp transport activity) in NIH 3T3 MDR1 cells", "settings": "20 min pre-treatment 37 °C, 500 nM calcein-AM 20 min", "procedure": "(§4) Calcein-AM was applied to measure the transport activity of Pgp[51], while ABCG2 mediated transport was measured in mitoxantrone accumulation tests[18]. Cells were harvested and washed three times in PBS containing 7 mM glucose (gl-PBS). […] Dead cells were excluded from the analysis on the basis of propidium iodide (PI) staining.\n(§5) Flow cytometric analysis was carried out on a Becton Dickinson FACSAria III Cell Sorter (Becton Dickinson, Mountain View, CA, USA). Calcein was excited by the 488 nm line of a solid state laser and the emitted light was detected using a 502 nm dichroic mirror and a 530/30 nm band-pass filter. […] AlexaFluor647 and mitoxantrone signals were detected with a 633 nm excitation laser and a 660/20 nm band-pass filter."}, "[11]": {"biological_target": "T1, ABCG2", "test": "Mitoxantrone accumulation test (ABCG2 transport activity) in MDCK ABCG2 cells", "settings": "20 min pre-treatment 37 °C, 5 μM mitoxantrone 40 min", "procedure": "as §4, §5"}}, "note": "Read-outs that look alike come from different tables or passages of the source.", "data": [{"smiles": "COc1ccc2c3c([nH]c2c1)[C@H](CC(C)C)N1C(=O)[C@H](CCC(=O)OC(C)(C)C)NC(=O)[C@@H]1C3", "note": "[Ko143]", "values": [{"measurement": "LogP (octanol-water partition coefficient, LogPow)", "setting": "[1]", "result": 3.5}, {"measurement": "Effect on DPH fluorescence anisotropy", "setting": "[2]", "result": "do not affect the overall membrane fluidity"}, {"measurement": "Effect on TMA-DPH fluorescence anisotropy", "setting": "[3]; retinoids 100 μM, cyclosporin 10 μM, Ko143 2 μM, 10 min 37 °C", "result": "do not affect the overall membrane fluidity"}]}, {"smiles": "CC(=O)OC/C=C(C)/C=C/C=C(C)/C=C/C1=C(C)CCCC1(C)C", "note": "[Retinyl-acetate]", "values": [{"measurement": "Effect on substrate accumulation of transporter negative cells", "setting": "[4]", "result": "did not have any effect"}, {"measurement": "IC50", "setting": "[5]; 10 μM quercetin, read-out: IC50 values, ABCG2 stimulated (quercetin-stimulated) ATPase activity", "result": "70.4 ± 7.3", "unit": "µM"}, {"measurement": "IC50", "setting": "[5]; read-out: IC50 values, ABCG2 basal ATPase activity", "result": "18.9 ± 4", "unit": "µM"}, {"measurement": "Cytotoxicity profile in Pgp+ versus Pgp− cells", "setting": "[6]", "result": "identical cytotoxicity profile"}, {"measurement": "Effect on the basal ATPase activity of Pgp", "setting": "[7]; Fig. 2c", "result": "slightly stimulated"}, {"measurement": "IC50 at 25 min", "setting": "[8]", "result": "36.8 ± 4", "unit": "µM"}, {"measurement": "LogP (octanol-water partition coefficient, LogPow)", "setting": "[1]", "result": 6.3}, {"measurement": "IC50", "setting": "[9]", "result": "19.1 ± 5", "unit": "µM"}, {"measurement": "Effect on DPH fluorescence anisotropy", "setting": "[2]", "result": "increased the DPH fluorescence anisotropy values significantly"}, {"measurement": "Effect on DPH anisotropy in transporter expressing compared to non-expressing cells", "setting": "[2]; Pgp+ vs Pgp− NIH 3T3, ABCG2 expressing vs non-expressing MDCK", "result": "significantly lower effect"}, {"measurement": "Effect on calcein accumulation of Pgp expressing cells (Pgp transport activity)", "setting": "[10]", "result": "increased the cellular accumulation of the fluorescent transporter substrates in a concentration dependent manner"}, {"measurement": "Effect on mitoxantrone accumulation of ABCG2 expressing cells (ABCG2 transport activity)", "setting": "[11]", "result": "increased the cellular accumulation of the fluorescent transporter substrates in a concentration dependent manner"}]}, {"smiles": "CCCCCCCCCCCCCCCC(=O)OC/C=C(C)/C=C/C=C(C)/C=C/C1=C(C)CCCC1(C)C", "note": "[Retiny-palmitate, Retinyl-palmitate]", "values": [{"measurement": "IC50 values, ABCG2 stimulated (quercetin-stimulated) ATPase activity", "setting": "[5]; 10 μM quercetin", "result": "No effect"}, {"measurement": "IC50 values, ABCG2 basal ATPase activity", "setting": "[5]", "result": "No effect"}, {"measurement": "IC50 values, Pgp stimulated (verapamil-stimulated) ATPase activity", "setting": "[7]; 40 μM verapamil, mean ± SEM, n=3", "result": "No effect"}, {"measurement": "IC50 values, Pgp basal ATPase activity", "setting": "[7]; 10 min pre-incubation 37 °C, 3 mM ATP/Mg2+ 25 min, mean ± SEM, n=3", "result": "No effect"}, {"measurement": "Effect on TMA-DPH fluorescence anisotropy, NIH 3T3 cell pair", "setting": "[3]; 100 μM, NIH 3T3 and NIH 3T3 MDR1 cells", "result": "decreased the TMA-DPH anisotropies significantly"}, {"measurement": "Effect on calcein accumulation of Pgp expressing cells (Pgp transport activity)", "setting": "[10]", "result": "none of them had any effect"}, {"measurement": "Effect on mitoxantrone accumulation of ABCG2 expressing cells (ABCG2 transport activity)", "setting": "[11]", "result": "none of them had any effect"}]}]}
